# Measurements taken from patent US10202378B2, “Therapeutic compounds and uses thereof” (GENENTECH, INC., priority 2015, dated 2019).
# Key:
# [1] = molecular target: TAF1-BD2 (Homo sapiens, UniProt P21675); experiment: TAF1-BD2 TR-FRET Binding Assay; details: read-out: TAF1-BD2 HTRF IC50
# Experimental: IC50 Measurements for Inhibitors Using TAF1-BD2 TR-FRET Binding Assay
# His/Flag epitope tagged TAF1-BD21504-1635 was cloned, expressed, and purified to homogeneity. TAF1-BD2 binding and inhibition was assessed by monitoring the engagement of a biotinylated small molecule compound 1000 with the target using the TR-FRET assay technology (Perkin-Elmer). Specifically, in a 384 well ProxiPlate, TAF1-BD2 (0.012 uM final) in 50 mM HEPES (pH 7.5; final), 50 mM NaCl (final), 1 mM TCEP (final), 0.1 mg/mL BSA (final), and 0.069 mM Brij-35 (final) was added either in the presence of DMSO (final 0.2% DMSO) or compound dilution series in DMSO. After a 10 minute incubation at room temperature, biotin-ligand (0.04 uM final) was added. After 10 minutes incubation at room temperature, a mixture Eu-W1024 Anti-6×His antibody (Perkin Elmer AD0110) and SureLight™ Streptavidin-Allophycocyanin (SA-APC, Perkin Elmer CR130-100) were added to a final concentration of 0.2 nM antibody and 0.025 uM SA-APC, respectively. After forty minutes of equilibration at room temperature, the plates were read on an Envision instrument and IC50s calculated using a four parameter logistic model (XLFIT).
# [2] = molecular target: TAF1-BD1 (Homo sapiens, UniProt P21675); experiment: TAF1-BD1 TR-FRET Binding Assay; details: read-out: TAF1-BD1 HTRF IC50
# Experimental: IC50 Measurements for Inhibitors Using TAF1-BD1 TR-FRET Binding Assay
# His/Flag epitope tagged TAF1-BD11381-1497 was cloned, expressed, and purified to homogeneity. TAF1-BD binding and inhibition was assessed by monitoring the engagement of a biotinylated small molecule compound 1000 with the target using the TR-FRET assay technology (Perkin-Elmer). Specifically, in a 384 well ProxiPlate, TAF1-BDI (0.08 uM final) in 50 mM HEPES (pH 7.5; final), 50 mM NaCl (final), 1 mM TCEP (final), 0.1 mg/mL BSA (final), and 0.069 mM Brij-35 (final) was added either in the presence of DMSO (final 0.2% DMSO) or compound dilution series in DMSO. After a 10 minute incubation at room temperature, biotin-ligand (0.08 uM final) was added. After 10 minutes incubation at room temperature, a mixture Eu-W1024 Anti-6×His antibody (Perkin Elmer ADO 110) and SureLight™ Streptavidin-Allophycocyanin (SA-APC, Perkin Elmer CR130-100) were added to final concentrations of 0.2 nM antibody and 0.05 uM SA-APC, respectively. After forty minutes of equilibration at room temperature, the plates were read on an Envision instrument and IC50s calculated using a four parameter logistic model (XLFIT).
Structure (SMILES),IC50 [1] [nM],IC50 [2] [nM]
"CCOC(=O)c1c(C)[nH]c2c(=O)n(C)cc(C#CC3(O)CC3)c12 [Example 18, ethyl 4-[2-(1-hydroxycyclopropyl)ethynyl]-2,6-dimethyl-7-oxo-1H-pyrrolo[2,3-c]pyridine-3-carboxylate]",85.4,632
"CCOC(=O)c1c(C)[nH]c2c(=O)n(C)cc(C#CC3(O)CCC3)c12 [Example 21, ethyl 4-[2-(1-hydroxycyclobutyl)ethynyl]-2,6-dimethyl-7-oxo-1H-pyrrolo[2,3-c]pyridine-3-carboxylate]",61.1,407
"CCOC(=O)c1c(C)[nH]c2c(=O)n(C)cc(C#CC(C)(O)CCc3ccccc3)c12 (centres unmarked) [Example 23, ethyl 4-(3-hydroxy-3-methyl-5-phenyl-pent-1-ynyl)-2,6-dimethyl-7-oxo-1H-pyrrolo[2,3-c]pyridine-3-carboxylate]",58.6,182
"CCOC(=O)c1c(C)[nH]c2c(=O)n(C)cc(C#CC(C)(C)OC)c12 [Example 26, ethyl 4-(3-methoxy-3-methyl-but-1-ynyl)-2,6-dimethyl-7-oxo-1H-pyrrolo[2,3-c]pyridine-3-carboxylate]",284,503
"CCOC(=O)c1c(C)[nH]c2c(=O)n(C)cc(C#CC3(O)COC3)c12 [Example 30, ethyl 4-[2-(3-hydroxyoxetan-3-yl)ethynyl]-2,6-dimethyl-7-oxo-1H-pyrrolo[2,3-c]pyridine-3-carboxylate]",87.3,634
"CCOC(=O)c1c(C)[nH]c2c(=O)n(C)cc(C#CC(C)(C)C(=O)NC)c12 [Example 32, ethyl 4-[3,3-dimethyl-4-(methylamino)-4-oxo-but-1-ynyl]-2,6-dimethyl-7-oxo-1H-pyrrolo[2,3-c]pyridine-3-carboxylate]",1320,802
"CCOC(=O)c1c(C)[nH]c2c(=O)n(C)cc(C#CC(C)(O)c3cccc(F)c3)c12 (centres unmarked) [Example 33, ethyl 4-[3-(3-fluorophenyl)-3-hydroxy-but-1-ynyl]-2,6-dimethyl-7-oxo-1H-pyrrolo[2,3-c]pyridine-3-carboxylate]",60,218
"CCOC(=O)c1c(C)[nH]c2c(=O)n(C)cc(C#CC(C)(O)CC#N)c12 (centres unmarked) [Example 35, ethyl 4-(4-cyano-3-hydroxy-3-methyl-but-1-ynyl)-2,6-dimethyl-7-oxo-1H-pyrrolo[2,3-c]pyridine-3-carboxylate]",100,139
"CCOC(=O)c1c(C)[nH]c2c(=O)n(C)cc(C#CC(C)(C)C(N)=O)c12 [Example 37, ethyl 4-(4-amino-3,3-dimethyl-4-oxo-but-1-ynyl)-2,6-dimethyl-7-oxo-1H-pyrrolo[2,3-c]pyridine-3-carboxylate]",221,382
"CCOC(=O)c1c(C)[nH]c2c(=O)n(C)cc(C#CC(O)(c3cccc(-c4cn[nH]c4)c3)C(F)(F)F)c12 (centres unmarked) [Example 41, ethyl 2,6-dimethyl-7-oxo-4-[4,4,4-trifluoro-3-hydroxy-3-[3-(1H-pyrazol-4-yl)phenyl]but-1-ynyl]-1H-pyrrolo[2,3-c]pyridine-3-carboxylate]",21.5,171
"CCOC(=O)c1c(C)[nH]c2c(=O)n(C)cc(C#CC(O)(c3ccn(C)n3)C(F)(F)F)c12 (centres unmarked) [Example 42, ethyl 2,6-dimethyl-7-oxo-4-[4,4,4-trifluoro-3-hydroxy-3-(1-methylpyrazol-3-yl)but-1-ynyl]-1H-pyrrolo[2,3-c]pyridine-3-carboxylate]",96.9,657
"CCOC(=O)c1c(C)[nH]c2c(=O)n(C)cc(C#CC(O)(c3cccc(CO)c3)C(F)(F)F)c12 (centres unmarked) [Example 43, ethyl 2,6-dimethyl-7-oxo-4-[4,4,4-trifluoro-3-hydroxy-3-[3-(hydroxymethyl)phenyl]but-1-ynyl]-1H-pyrrolo[2,3-c]pyridine-3-carboxylate]",35.5,257
"CCOC(=O)c1c(C)[nH]c2c(=O)n(C)cc(C#CC(O)(C3CC3)C(F)(F)F)c12 (centres unmarked) [Example 45, ethyl 4-(3-cyclopropyl-4,4,4-trifluoro-3-hydroxy-but-1-ynyl)-2,6-dimethyl-7-oxo-1H-pyrrolo[2,3-c]pyridine-3-carboxylate]",74.7,271
"C=CCCn1cc(C#CC(C)(O)C2CC2)c2c(C(=O)OCC)c(C)[nH]c2c1=O (centres unmarked) [Example 46, ethyl 6-but-3-enyl-4-(3-cyclopropyl-3-hydroxy-but-1-ynyl)-2-methyl-7-oxo-1H-pyrrolo[2,3-c]pyridine-3-carboxylate]",133,2230

# Results, then the compound that gave them:
IC50 [1] [nM],IC50 [2] [nM],Structure (SMILES)
67.3,404,"CCOC(=O)c1c(C)[nH]c2c(=O)n(C)cc(C#CC(C)(O)COc3ccccc3)c12 (centres unmarked) [Example 17, ethyl 4-(3-hydroxy-3-methyl-4-phenoxy-but-1-ynyl)-2,6-dimethyl-7-oxo-1H-pyrrolo[2,3-c]pyridine-3-carboxylate]"
30.3,146,"CCOC(=O)c1c(C)[nH]c2c(=O)n(C)cc(C#CC(C)(O)c3cccc(C#N)c3)c12 (centres unmarked) [Example 19, ethyl 4-[3-(3-cyanophenyl)-3-hydroxy-but-1-ynyl]-2,6-dimethyl-7-oxo-1H-pyrrolo[2,3-c]pyridine-3-carboxylate]"
21.9,282,"CCOC(=O)c1c(C)[nH]c2c(=O)n(C)cc(C#CC3(O)CCCC3)c12 [Example 20, ethyl 4-[2-(1-hydroxycyclopentyl)ethynyl]-2,6-dimethyl-7-oxo-1H-pyrrolo[2,3-c]pyridine-3-carboxylate]"
523,804,"CCOC(=O)c1c(C)[nH]c2c(=O)n(C)cc(C#CC(C)(C)NC(C)=O)c12 [Example 22, ethyl 4-(3-acetamido-3-methyl-but-1-ynyl)-2,6-dimethyl-7-oxo-1H-pyrrolo[2,3-c]pyridine-3-carboxylate]"
138,536,"CCOC(=O)c1c(C)[nH]c2c(=O)n(C)cc(C#CC(O)(CC)CC)c12 [Example 24, ethyl 4-(3-ethyl-3-hydroxy-pent-1-ynyl)-2,6-dimethyl-7-oxo-1H-pyrrolo[2,3-c]pyridine-3-carboxylate]"
373,848,"CCOC(=O)c1c(C)[nH]c2c(=O)n(C)cc(C#CC(C)(C)OCc3ccccc3)c12 [Example 25, ethyl 4-(3-benzyloxy-3-methyl-but-1-ynyl)-2,6-dimethyl-7-oxo-1H-pyrrolo[2,3-c]pyridine-3-carboxylate]"
52.5,234,"CCOC(=O)c1c(C)[nH]c2c(=O)n(C)cc(C#CC(C)(O)c3cccnc3)c12 (centres unmarked) [Example 28, ethyl 4-[3-hydroxy-3-(3-pyridyl)but-1-ynyl]-2,6-dimethyl-7-oxo-1H-pyrrolo[2,3-c]pyridine-3-carboxylate]"
375,1310,"CCOC(=O)c1c(C)[nH]c2c(=O)n(C)cc(C#CC(C)(C)C(=O)N(C)C)c12 [Example 36, ethyl 4-[4-(dimethylamino)-3,3-dimethyl-4-oxo-but-1-ynyl]-2,6-dimethyl-7-oxo-1H-pyrrolo[2,3-c]pyridine-3-carboxylate]"
76.9,525,"CCOC(=O)c1c(C)[nH]c2c(=O)n(C)cc(C#CC(O)(c3cccc(N(C)C)c3)C(F)(F)F)c12 (centres unmarked) [Example 39, ethyl 4-[3-[3-(dimethylamino)phenyl]-4,4,4-trifluoro-3-hydroxy-but-1-ynyl]-2,6-dimethyl-7-oxo-1H-pyrrolo[2,3-c]pyridine-3-carboxylate]"
69.2,355,"CCOC(=O)c1c(C)[nH]c2c(=O)n(C)cc(C#CC(O)(c3cccc(C#N)c3)C(F)(F)F)c12 (centres unmarked) [Example 40, ethyl 4-(3-(3-cyanophenyl)-4,4,4-trifluoro-3-hydroxybut-1-yn-1-yl)-2,6-dimethyl-7-oxo-6,7-dihydro-1H-pyrrolo[2,3-c]pyridine-3-carboxylate]"
17,226,"CCOC(=O)c1c(C)[nH]c2c(=O)n(C)cc(C#CC(O)(c3cccc(-c4cc[nH]n4)c3)C(F)(F)F)c12 (centres unmarked) [Example 44, ethyl 2,6-dimethyl-7-oxo-4-[4,4,4-trifluoro-3-hydroxy-3-[3-(1H-pyrazol-3-yl)phenyl]but-1-ynyl]-1H-pyrrolo[2,3-c]pyridine-3-carboxylate]"
